# Laboratory results from patent US10918655B2, “Stimulating platelet generation by activating mitochondrial biogenesis” (THE GENERAL HOSPITAL CORPORATION, priority 2016, dated 2021).
# How the values were obtained:
# [1] = test system: circulating platelet counts; test: circulating platelet counts in mice receiving 5-FU; type: in vivo; details: on day 4; dose of 150 mg/kg body weight
# Procedure: FIGS. 6A-6D provide graphs showing that LLL alleviates thrombocytopenia induced by anti-CD41 antibody or 5-FU in mice. (A and B) Mice were administered daily with 0.1 mg/kg anti-CD41 antibody over 7 days. LLL was given daily from day 3 to day 7. […] LLL was given daily for 3 consecutive days starting at 4 hr after 5-FU injection. Platelet counts (A and C) were measured daily at 6 hr post-LLL and a tail bleeding time (B and D) was examined on day 5 (B) or day 4 (D). n=6; ns, no significance; and *P<0.05, **P<0.01, ***P<0.001 compared between indicated groups.
# We further extended our investigation to ITP precluding that LLL-mediated thrombopoiesis was specific for thrombocytopenia induced by γ-irradiation. We depleted platelets by administering anti-CD41 antibody daily at 0.1 mg/kg body weight from day 0 to day 7 to create a commonly used animal model of ITP. Katsman et al., Transfusion 50, 1285-1294 (2010). […] LLL lifted the nadir effectively after only two treatments (day 4) and greatly accelerated a recovery of platelet counts in the presence of anti-CD41 antibody, although platelet counts were rebound in all the mice eventually owing to compensatory thrombopoiesis (FIG. 6A). Bleeding time was also normalized on day 5 in LLL-treated animals (FIG. 6B). […]
# PPF-MKs = details: Richardson et al., Blood 2005; cited from earlier work
# 5-FU-treated mice = test: platelet production in vivo in 5-FU-induced thrombocytopenia with mito-drugs; set-up: species or system B6 mice; details: 100 mg/kg gavage twice a day for 4 days
# Procedure: FIG. 10 provides a graph showing the enhancement of plt production by mito-drugs in vivo. All mice were treated with two doses of 5-FU (FU), along with an indicated mito-drug or LLLT for 4 consecutive days (red arrow). *, p<0.05, **, p<0.01 and ***, p<0.001 in the presence or absence of indicated drugs or LLLT. n=10 in each group.
# The 5-FU-treated mice were gavaged with BEZ or Res at 100 mg/kg body weight or vehicle control twice a day for 4 consecutive days starting at 6 hr after the first 5-FU injection. For comparison, 5-FU-treated mice were also administered LLL daily for 4 consecutive days in parallel. […] Whether or not a higher dose or dosage of BEZ can further increase the efficacy remains to be investigated.
# MKs [2] = test: platelet production from LLL-treated MKs with Oligomycin A in MK medium; type: cell-based, mouse; details: 5 μg/ml in MK medium
# Procedure: (§1) FIGS. 1A-1H provide graphs and images showing LLL promotes MK maturation and platelet production. (A) Illustration of time lines of ex vivo platelet differentiation from MKs. CD41+ FSC^high MKs were sorted from BM cells, treated with or without LLL, and cultured in MK medium. MKs were collected 1 hr later for cellular ATP measurement (B), 1 day for studying proplatelet formation (C-F) or 3 days for counting platelets (G). (B) ATP was measured in 5×10^4 MKs treated with LLL at various energy densities. (C) Sizes of CD41+ MKs were analyzed by flow cytometric analysis of forward/side scatter (FSC) before and after 24 hr differentiation. (D) Representative transmission electron micrographs of MKs from at least 6 samples per group with 30 cells in each group. N, nuclear; IMS, invaginated membrane system. […] (F) The numbers indicated percentages of small or large PPF-MKs of at least 500 MKs analyzed per sample and 6 samples per group. ###P<0.001, large PPF-MKs and **P<0.01, total PPF-MKs compared between the two groups. […]
# (§2) FIGS. 2A-2H provide graphs and images showing the thrombopoietic effect of LLL is ATP-dependent. (A) Correlations between MK ATP levels at 1 hr post-LLL and platelets measured in 3 days later are analyzed by coefficient of determination. […] Mitochondrial membrane potential of CD41+ FSC^high MKs was determined by flow cytometric analysis of red J-aggregate fluorescence at 590 nm. […]
# MKs [3] = test: ATP measurement in MKs with Oligomycin A; type: cell-based, mouse; details: 5 μg/ml
# Procedure: as §1, §2
# Mouse MKs = test: platelet production ex vivo from MKs in the presence of mito-drugs; type: cell-based; details: for platelet generation from MKs ex vivo: Bezafibrate 400 μM, Resveratrol 50 μM, SRT1720 0.1 μM, AICAR 500 μM, MK medium for 3 days, compared to controls
# Procedure: FIG. 9 provides a graph showing enhancement of platelet production ex vivo by mito-drugs. C. control; Bez, Bezafibrate (400 μM); Res, Resveratrol (50 μM); SRT1720, 0.1 μM; Aicar, AICAR (500 μM); LLL, 810 nm 3 J/cm^2. Mouse MKs were differentiated in MK medium for 3 days in the presence of an indicated drug or after LLLT. **, p<0.01 and ***, p<0.001 compared to controls. n=6.
# Some mito-drugs tested enhance platelet production from MKs ex vivo. […] The concentration used for individual drugs is the one commonly used for inducing PGC-1α expression in other cell cultures except for SRT1720 that was used at a 100× lower concentration. […] Perhaps, the concentration of each drug can be further optimized for enhancing platelet production.
# IEX-1-deficient mice = details: Ramsey et al., Platelets 2015; cited from earlier work
smiles,measurement,setting,value
"O=c1[nH]cc(F)c(=O)[nH]1 [5-FU, 5-fluorouracil]",diminished circulating platelet counts,[1],43%
Nc1ncnc2c1ncn2[C@@H]1O[C@H](COP(=O)(O)OP(=O)(O)OP(=O)(O)O)[C@@H](O)[C@H]1O [ATP],proplatelet elongation,PPF-MKs,activated proplatelet elongation
same,proplatelet growth,PPF-MKs,significantly enhanced proplatelet growth
"CC(C)(Oc1ccc(CCNC(=O)c2ccc(Cl)cc2)cc1)C(=O)O [BEZ, bezafibrate]",platelet counts sustained,5-FU-treated mice; 5-FU 120 and 90 mg/kg on days 1 and 4,≥ 70 % the normal value
CC[C@@H]1/C=C/C=C/C[C@H](C)[C@H](O)[C@](C)(O)C(=O)[C@H](C)[C@@H](O)[C@H](C)C(=O)[C@H](C)[C@@H](O)[C@H](C)/C=C/C(=O)O[C@H]2[C@@H](C)[C@@H](CC1)O[C@@]1(CC[C@@H](C)[C@@H](C[C@H](C)O)O1)[C@@H]2C [Oligomycin A],LLL-mediated enhancement of platelet generation,MKs [2],severely blunted
same,ATP synthesis in the cells,MKs [3],reduces ATP synthesis
O=C(Nc1ccccc1-c1cn2c(CN3CCNCC3)csc2n1)c1cnc2ccccc2n1 [SRT1720],platelet generation from MKs ex vivo,Mouse MKs,enhance platelet generation from MKs ex vivo significantly
same,platelet production,Mouse MKs; higher concentration of SRT1720 (than 0.1 μM),did not increase platelet production significantly
COC1=C(OC)C(=O)C(CCCCCCCCCC[P+](c2ccccc2)(c2ccccc2)c2ccccc2)=C(C)C1=O [mitoquinone],thrombocytopenia in IEX-1-deficient mice,IEX-1-deficient mice,completely reverse thrombocytopenia
Oc1ccc(C=Cc2cc(O)cc(O)c2)cc1 [resveratrol],efficacy compared to BEZ or LLLT,5-FU-treated mice; 5-FU-treated mice,relatively weak
same,nadir of platelet counts,5-FU-treated mice; 5-FU-treated mice,lifted the nadir significantly
same,platelet biogenesis,5-FU-treated mice; 5-FU-treated mice,augmented platelet biogenesis
same,platelet generation from MKs ex vivo,Mouse MKs,enhance platelet generation from MKs ex vivo significantly
